{"source": "patent US20120183950A1", "about": "“TISSUE ANALYSIS” (priority 2009, published 2012)", "tested_on": "influenza virus H3N2X31", "assay_type": "cell-based", "settings": "human bronchial and parenchymal lung tissue explants, X31 virus, NP-1 antibody, flow cytometry; FIG. 8", "data": [{"smiles": "CCOC(=O)C1=C[C@@H](OC(CC)CC)[C@H](NC(C)=O)[C@@H](N)C1", "note": "[oseltamivir]", "values": [{"measurement": "efficacy as inhibitor of viral infection in the explant model (primary output: percentage of cells infected)", "value": "demonstrated the efficacy"}]}, {"smiles": "Cl.N", "note": "[ammonium chloride]", "values": [{"measurement": "efficacy as inhibitor of viral infection in the explant model (primary output: percentage of cells infected)", "value": "demonstrated the efficacy"}]}]}
